Laboratory results taken from patent US20070116833A1, “High-Potency Sweetener Composition with Calcium and Compositions Sweetened Therewith” (THE COCA-COLA COMPANY, priority 2005, published 2007).
Each block holds one compound with its values, some of them ahead of it.

What was measured:
[1] = system: panel of experts in the sensory evaluation of foods and beverages; test: Sensory evaluation of sweetness linger by expert panel; format: in vivo; design: key: 0: no sweetness linger; 1: very slight sweetness linger; 2: slight sweetness linger; 3: moderate sweetness linger; 4: moderately high sweetness linger; 5: high sweetness linger; details: for Sweetness Linger rating (defined for controls): ratings defined for the protocol, REBA control sample 500 ppm; for sweetness linger: scale 0-5
Method: Sensory evaluation of the samples prepared in Example Set G was carried out under the following protocol, similar to that described hereinabove. In this test protocol, none of the samples were swallowed. All samples were expectorated and the mouth was rinsed with water after the tasting. Immediately upon sensing maximal sweetness, the sample was expectorated, the mouth was rinsed with water and the rate of sweetness decay (“Sweetness Linger”) was measured, where attention was focused on the sweetness 3-4 min after the water rinse. After sample tasting was complete, a salty oyster cracker was chewed followed by a water rinse, and at least 5 minutes followed before tasting the next sample. The sweetness linger was rated by a panel of experts in the sensory evaluation of foods and beverages using the following scale: 0=no sweetness linger, 1 =very slight sweetness linger, 2 slight sweetness linger, 3=moderate sweetness linger, 4 =moderately high sweetness linger, 5 high sweetness linger.
The “Sweetness Linger” rating for sucrose observed by this protocol is defined as 0. The Sweetness Linger of a 500 ppm of REBA control sample is defined as 5. Experimental samples were tasted by the same protocol, always allowing sufficient time between samples to ensure re-equilibration of the sensory system. Re-tasting of control samples during the course of the experiment was allowed and encouraged.
The comparison taste test was performed between two controls and addition of sweet taste improving additive on the onset and/or sweetness linger.
Sweet taste improving compositions were combined with a REBA solution to determine their effect on sweetness linger. Screening of the initial sample, or further dilutions, allowed identification of concentrations which were just above-threshold, herein defined as “near-threshold concentrations.” The near-threshold additive concentrations, a 6- to 100-fold higher additive concentration (depending on the off-taste intensity), and a mid-level additive concentration (halfway between the near-threshold and higher additive concentration) were evaluated to determine the effect on sweetness linger of a REBA solution. […]
Sensory evaluation using the protocol described in Example Set G then was used to evaluate the sweetness linger of the REBA solutions.

[2] = Rate of dissolution of rebaudioside A polymorphs in H2O; format: physicochemical
[3] = format: physicochemical
Method: A solution of rebaudioside A (>97% pure by HPLC) was prepared in double distilled water (12.5 gm in 50 mL, 25% concentration) by stirring the mixture at 40° C. for 5 minutes. An amorphous form of rebaudioside A was formed by immediately using the clear solution for spray drying with the Lab-Plant spray drier SD-04 instrument (Lab-Plant Ltd., West Yorkshire, U.K.). The solution was fed through the feed pump into the nozzle atomizer which atomized it into a spray of droplets with the help of a constant flow of nitrogen/air. […] This dry powder (11-12 g, H2O 6.74%) was discharged continuously from the drying chamber and was collected in a bottle.

Compound: OC[C@H]1O[C@@](CO)(O[C@H]2O[C@H](CO)[C@@H](O)[C@H](O)[C@H]2O)[C@@H](O)[C@@H]1O [sugar, sucrose, reference compound]
Sweetness Linger rating (defined for controls) [1]: 0

Rate of dissolution in H2O at 25° C. [2]: Very low (<0.2%/ %/60 minutes
Compound: rebaudioside A [Form 1]

Compound: rebaudioside A
sweetness linger ([1]; Example Set G: 400 ppm REBA in citric acid/potassium citrate composition equivalent to that in a diet lemon-lime beverage, sweetness 3-4 min after water rinse): 5
sweetness linger ([1]; Example Set H: 500 ppm REBA (H41: 360 ppm) in carbon-treated water, phosphoric acid (75%) to pH 2.4-2.5): 5
Sweetness Linger rating (defined for controls) [1]: 5

solubility in water at room temperature [3]: > 35.0%
Compound: rebaudioside A [F]
